From PMC8151276, “An Integrated Approach toward NanoBRET Tracers for Analysis of GPCR Ligand Engagement” (Molecules, 2021)

Experiments:
Type in all cases: binding
[1] = molecular target: T1, NPFFR1 (Homo sapiens, UniProt Q9GZQ6); assay: NanoBRET screen HiBiT-NPFFR1 in HEK293
T1 construct: purchased Promega (in-house HiBiT-GPCR construct library, NanoBRET)
Method: (§1) Each tracer candidate was screened across the entire library of HiBiT-GPCR constructs using NanoBRET as the detection modality. As depicted in Figure 4A, the specificity of interactions was evaluated through decrease in BRET due to competitive displacement of a bound tracer by excess parental compound. Each tracer was analyzed for binding to each HiBiT-GPCR fusion in the absence and in the presence of competing parental compound. Briefly, HEK293 cells were transfected with HiBiT-GPCR constructs diluted into promoterless DNA to reduce expression and maximize translocation to the cell surface. Each tracer candidate was then screened at concentrations of 1 μM and 0.1 μM across cells expressing these fusions. Cells were treated for 1.5 h with tracer either alone or in the presence of 20 μM competing parental compound (i.e., control). BRET was measured upon addition of purified LgBiT and subsequent complementation with HiBiT genetically fused to a GPCR. The specificity of interactions was assessed through a decrease in BRET signal due to competitive displacement of the bound tracer. To further gauge the robustness of these interactions, the fold response over the control (i.e., BRETtracer/BRETcontrol) was calculated. We chose a 1.5-fold response, which translates to ≥7-fold signal over noise as the minimal threshold required to score an interaction as positive.
(§2) HiBiT-GPCR DNA constructs were diluted in 10 mM Tris pH 8 to a final concentration of 0.01 μg/μL, arrayed in 96-well plates and stored at −20 °C. For transfection, HEK293 cells were suspended in Opti-MEM (without phenol red) supplemented with 2% fetal bovine serum (Seradigm) and 100 units/mL penicillin–streptomycin (Gibco) at a final concentration of 220,000 cells/mL and dispensed into white 96-well plates at 90 μL/well. Subsequent transfections and screens were carried using an Agilent Bravo Automated Liquid Handling Platform. First, the 96-well HiBiT DNA arrays were diluted 25-fold in Opti-MEM (without serum or phenol red) to a final concentration of 0.0004 μg/μL and 20 μL of the diluted DNAs were transferred into new 96-well plates. Next, promoterless carrier DNA (1 μg/μL) was diluted 25-fold (0.04 μg/μL) and then dispensed into the diluted arrays at 20 μL/well. Following brief mixing, Viafect transfection reagent (Promega) diluted 16-fold into Opti-MEM was dispensed into the plates at 40 μL/well. After mixing by pipetting, plates were incubated for 10 min on the pipetting station deck. The DNA-transfection reagent complexes were then added to plates containing cells. To facilitate the screen, 10 μL of DNA-transfection reagent complexes were added in duplicates to the top 4 and bottom 4 rows, resulting in two identical 48-well arrays per plate. Plates with transfected cells were incubated for 18–20 h at 37 °C/5% CO2. A screen of each tracer across the entire library using two different concentrations requires duplicate plates of transfected cells. Depending on the number of tracers being screened, transfections can be scaled up using the same ratios. The next day, for each tracer, four 20× screening solutions in tracer dilution buffer (Promega) were prepared: two duplicates at final concentration of 20 μM and two duplicates at a final concentration of 2 μM. […] The four resulting solutions were diluted 4-fold in Opti-MEM without serum or phenol red to generate 5× solutions (5 µM and 0.5 µM tracer +/− 100 μM competing compound). To screen the library, a BioTek MultiFlo FX liquid dispenser was used to dispense 22.5 µL of tracer solution to the top 4 rows and 22.5 µL tracer + competing compound solution to the 4 bottom rows. Plates were briefly mixed on an orbital shaker and incubated for 1.5 h at room temperature. […] Plates were briefly mixed on an orbital shaker and incubated for 15 min to allow complementation.

[2] = molecular target: T2, CYSLTR1 (Homo sapiens, UniProt Q9Y271); assay: NanoBRET screen HiBiT-CYSLTR1 in HEK293; settings: CYSLTR1
T2 construct: purchased Promega (in-house HiBiT-GPCR construct library, NanoBRET)
T2 sequence (Q9Y271 1-337): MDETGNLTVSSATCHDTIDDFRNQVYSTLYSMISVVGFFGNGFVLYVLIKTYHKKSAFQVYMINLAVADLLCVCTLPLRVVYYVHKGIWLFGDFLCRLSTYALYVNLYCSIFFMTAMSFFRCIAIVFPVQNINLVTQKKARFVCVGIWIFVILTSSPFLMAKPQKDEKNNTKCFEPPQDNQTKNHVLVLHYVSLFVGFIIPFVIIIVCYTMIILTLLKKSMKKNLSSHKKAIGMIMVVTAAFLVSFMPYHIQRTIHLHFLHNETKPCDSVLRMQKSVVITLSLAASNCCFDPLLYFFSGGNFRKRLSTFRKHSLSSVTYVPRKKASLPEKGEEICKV
Method: as §1, §2

[3] = molecular target: T3, NPSR1 (Homo sapiens, UniProt Q6W5P4); assay: NanoBRET screen HiBiT-NPSR1 in HEK293
T3 construct: purchased Promega (in-house HiBiT-GPCR construct library, NanoBRET)
T3 sequence (Q6W5P4 1-371): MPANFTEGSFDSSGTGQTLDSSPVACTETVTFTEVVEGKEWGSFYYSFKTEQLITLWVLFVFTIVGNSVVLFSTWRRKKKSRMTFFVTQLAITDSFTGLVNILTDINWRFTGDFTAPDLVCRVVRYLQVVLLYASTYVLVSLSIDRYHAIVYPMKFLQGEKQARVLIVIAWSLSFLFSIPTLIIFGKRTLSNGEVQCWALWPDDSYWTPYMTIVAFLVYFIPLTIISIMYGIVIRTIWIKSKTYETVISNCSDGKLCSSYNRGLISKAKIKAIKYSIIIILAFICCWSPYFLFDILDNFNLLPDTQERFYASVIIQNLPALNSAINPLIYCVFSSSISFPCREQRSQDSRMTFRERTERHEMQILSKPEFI
Method: as §1, §2

T1 sequence (Q9GZQ6 whole entry): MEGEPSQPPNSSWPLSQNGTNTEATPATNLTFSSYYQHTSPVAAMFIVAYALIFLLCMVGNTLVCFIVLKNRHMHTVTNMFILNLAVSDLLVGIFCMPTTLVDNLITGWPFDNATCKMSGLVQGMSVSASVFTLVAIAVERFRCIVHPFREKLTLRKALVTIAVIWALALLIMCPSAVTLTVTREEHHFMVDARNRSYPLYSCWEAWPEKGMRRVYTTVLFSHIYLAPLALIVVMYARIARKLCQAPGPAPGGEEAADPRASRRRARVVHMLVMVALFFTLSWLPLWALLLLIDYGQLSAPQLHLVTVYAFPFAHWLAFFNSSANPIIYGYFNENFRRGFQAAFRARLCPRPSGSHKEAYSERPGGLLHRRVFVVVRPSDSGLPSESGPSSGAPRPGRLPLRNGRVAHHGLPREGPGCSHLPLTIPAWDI

CN1CCN(C2=Nc3cc(Cl)ccc3Nc3ccc(CNC(=O)CCOCCOCCOCCOCCNC(=O)CCc4ccc5n4[B-](F)(F)[N+]4=C(c6ccc[nH]6)C=CC4=C5)cc32)CC1 [Clozapine-b-2-NB590]
NanoBRET Fold Response ([1]; NPFFR1, 0.1μM tracer): 1.00 | NanoBRET Fold Response ([1]; NPFFR1, 1μM tracer): 1.02 | NanoBRET Fold Response ([2]; 0.1μM tracer): 1.10 | NanoBRET Fold Response ([3]; NPSR1, 0.1μM tracer): 1.05 | NanoBRET Fold Response ([3]; NPSR1, 1μM tracer): 0.98

CN(C)CCC=C1c2ccccc2CCc2ccc(C(=O)NCCNC(=O)CCOCCOCCOCCOCCNC(=O)CCc3ccc4n3[B-](F)(F)[N+]3=C(c5ccc[nH]5)C=CC3=C4)cc21 [Amitriptyline-b-2-NB590]
NanoBRET Fold Response ([1]; tracer at 0.1μM): 0.98 | NanoBRET Fold Response ([2]; tracer 0.1μM): 0.94 | NanoBRET Fold Response ([2]; tracer 1μM): 1.01 | NanoBRET Fold Response ([3]; tracer at 0.1μM, listed as amitriptyline-b-2-NB590): 0.95 | NanoBRET Fold Response ([3]; tracer at 1μM, listed as amitriptyline-b-2-NB590): 1.15

CCOC(=O)c1cc(C#N)c(N2CCC(C(=O)NS(=O)(=O)Cc3ccccc3/C=C/C(=O)NCCNC(=O)CCc3ccc4n3[B-](F)(F)[N+]3=C(c5ccc[nH]5)C=CC3=C4)CC2)nc1C [AZD1283-1-NB590]
NanoBRET Fold Response ([1]; NPFFR1, 0.1μM): 1.02 | NanoBRET Fold Response ([1]; NPFFR1, 1μM): 0.99 | NanoBRET Fold Response ([2]; 0.1μM): 1.01 | NanoBRET Fold Response ([2]; 1μM): 0.98 | NanoBRET Fold Response ([3]; NPSR1, 0.1μM): 1.02 | NanoBRET Fold Response ([3]; NPSR1, 1μM): 1.06

CC(C)N(CC[C@H](c1ccccc1)c1cc(CCNC(=O)CCOCCOCCOCCOCCNC(=O)CCc2ccc3n2[B-](F)(F)[N+]2=C(c4ccc[nH]4)C=CC2=C3)ccc1O)C(C)C [Tolterodine-2-NB590]
NanoBRET Fold Response ([1]; NPFFR1, tracer 0.1μM): 1.19 | NanoBRET Fold Response ([2]; tracer 0.1μM): 0.86 | NanoBRET Fold Response ([2]; tracer 1μM): 0.91 | NanoBRET Fold Response ([3]; NPSR1, tracer 1μM): 1.34

CC(C)N(CC[C@H](c1ccccc1)c1cc(CCNC(=O)c2ccc(CNC(=O)CCc3ccc4n3[B-](F)(F)[N+]3=C(c5ccc[nH]5)C=CC3=C4)cc2)ccc1O)C(C)C [Tolterodine-BZ-NB590]
NanoBRET Fold Response ([1]; NPFFR1, tracer 0.1μM): 0.96 | NanoBRET Fold Response ([1]; NPFFR1, tracer 1μM): 1.02 | NanoBRET Fold Response ([2]; tracer 0.1μM): 0.97 | NanoBRET Fold Response ([2]; tracer 1μM): 0.99 | NanoBRET Fold Response ([3]; NPSR1, tracer 0.1μM): 1.12 | NanoBRET Fold Response ([3]; NPSR1, tracer 1μM): 0.99

O=C(CCOCCOCCOCCOCCNC(=O)CCc1ccc2n1[B-](F)(F)[N+]1=C(c3ccc[nH]3)C=CC1=C2)NCCCN1CCN(C2=Nc3ccccc3Oc3ccc(Cl)cc32)CC1 [Loxapine-a-2-NB590]
NanoBRET Fold Response ([1]; NPFFR1, tracer 0.1μM): 0.98 | NanoBRET Fold Response ([1]; NPFFR1, tracer 1μM): 1.00 | NanoBRET Fold Response ([2]; tracer 0.1μM): 1.12 | NanoBRET Fold Response ([2]; tracer 1μM): 1.02 | NanoBRET Fold Response ([3]; NPSR1, tracer 0.1μM): 0.98 | NanoBRET Fold Response ([3]; NPSR1, tracer 1μM): 1.04

CN1CCN(C2=Nc3cc(Cl)ccc3N(CC(=O)NCCOCCOCCOCCOCCNC(=O)CCc3ccc4n3[B-](F)(F)[N+]3=C(c5ccc[nH]5)C=CC3=C4)c3ccccc32)CC1 [Clozapine-c-2-NB590]
NanoBRET Fold Response ([1]; NPFFR1, 0.1μM tracer): 1.02 | NanoBRET Fold Response ([1]; NPFFR1, 1μM tracer): 1.00 | NanoBRET Fold Response ([2]; 0.1μM tracer): 0.90 | NanoBRET Fold Response ([3]; NPSR1, 0.1μM tracer): 1.02 | NanoBRET Fold Response ([3]; NPSR1, 1μM tracer): 1.02
